Assay results from ChEMBL document CHEMBL1201862, “PubChem BioAssay data set” (2004).
Activity calls are given as the source filed them.

Experiments:
A-375 [1] = assay: proliferation inhibition in MITF-low A375 cells – cell-based, cherry-pick samples, set 2, counter-screen for MITF modulator project, dose response (AID 540335); format: functional; conditions: Homo sapiens
[2] = target: T1, Microphthalmia-associated transcription factor (Homo sapiens, UniProt O75030); assay: reducers of TRPM1 reporter luminescence, concentration series – cell-based, SK-MEL-5, cherry-picked, set 3, MITF inhibitor project, dose response (AID 493073); format: functional;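 note: SK-MEL-5 melanoma cells with luciferase driven by the MITF target TRPM1 promoter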
T1 sequence (O75030 whole entry): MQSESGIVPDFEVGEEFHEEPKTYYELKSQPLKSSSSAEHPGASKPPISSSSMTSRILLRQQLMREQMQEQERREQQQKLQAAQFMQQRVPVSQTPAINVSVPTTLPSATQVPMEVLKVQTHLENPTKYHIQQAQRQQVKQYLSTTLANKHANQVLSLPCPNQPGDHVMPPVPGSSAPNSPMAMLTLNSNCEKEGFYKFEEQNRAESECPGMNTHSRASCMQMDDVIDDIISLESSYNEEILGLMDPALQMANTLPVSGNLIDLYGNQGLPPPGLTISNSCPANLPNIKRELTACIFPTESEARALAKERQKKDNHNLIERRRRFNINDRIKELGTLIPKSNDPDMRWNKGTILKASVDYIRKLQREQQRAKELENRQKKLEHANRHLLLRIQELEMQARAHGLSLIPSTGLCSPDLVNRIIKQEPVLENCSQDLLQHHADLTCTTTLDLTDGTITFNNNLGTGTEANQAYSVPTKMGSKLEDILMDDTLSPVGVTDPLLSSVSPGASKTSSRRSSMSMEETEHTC

[3] = target: T2, Luciferin 4-monooxygenase (Photinus pyralis, UniProt P08659); assay: Counter Screen for Luciferase-based Assay Positives. [Related pubchem assays: 620, 618, 411 ]
[4] = non-specific 3'UTR reporter inhibition in Clone20-Shn3RL – cell-based, Renilla luciferase, cherry-picked, counter-screen for Shn3 inhibitor project, dose response (AID 624133); format: functional
Nonstructural protein 1 = Nonstructural protein 1 (Influenza A virus, UniProt Q194T2); format: functional, Influenza A virus (A/California/07/2009(H1N1))
[5] = NIH3T3 cell viability loss – ATP luminescence, mouse fibroblasts, counter-screen, dose response (AID 2010); format: functional, cell-based;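 note: cells exposed to compound for about 90 hours before reading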
[6] = Trypanosoma cruzi growth suppression in host cells – NIH3T3 host cells, beta-gal luminescence, confirmation (AID 2044); format: functional, cell-based;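 note: intracellular parasites grown in NIH/3T3 mouse fibroblasts as host cells; luminescent beta-galactosidase reporter signal from transgenic T. cruzi replicating inside host cells; inhibitors lower the luminescence signal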
cells [7] = format: functional, cell-based
[8] = reduction of Shn3 3'UTR-driven luciferase in osteoblasts – cell-based, Clone20 osteoblasts, firefly luciferase, cherry-picked, dose response (AID 624132); format: functional;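 note: firefly luciferase luminescence from reporter carrying the Shn3 3'UTR in osteoblasts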
[9] = loss of viability in HepG2 cells – cell-based, CellTiter-Glo, cherry-picked, cytotoxicity control for Shn3 inhibitor project, dose response (AID 624134); format: functional
cells [10] = format: functional, cell-based; remark: listed apart in the source
HT-1080 = assay: HT1080 cell viability loss – fluorescence readout (AID 620); format: functional, cell-based; conditions: Homo sapiens
A-375 [11] = assay: MITF: Counter assay: A375 proliferation Measured in Cell-Based System Using Plate Reader - 2084-03_Inhibitor_Dose_DryPowder_Activity. [Related pubchem assays (depositor defined):AID488944]; format: functional; conditions: Homo sapiens
[12] = target: T3, Replicative DNA helicase DnaB (Mycobacterium tuberculosis, UniProt P9WMR3); assay: DnaB intein splicing inhibitors, dose response, biochemical, cell-free fluorescence (AID 449749); format: functional
T3 sequence (P9WMR3 whole entry): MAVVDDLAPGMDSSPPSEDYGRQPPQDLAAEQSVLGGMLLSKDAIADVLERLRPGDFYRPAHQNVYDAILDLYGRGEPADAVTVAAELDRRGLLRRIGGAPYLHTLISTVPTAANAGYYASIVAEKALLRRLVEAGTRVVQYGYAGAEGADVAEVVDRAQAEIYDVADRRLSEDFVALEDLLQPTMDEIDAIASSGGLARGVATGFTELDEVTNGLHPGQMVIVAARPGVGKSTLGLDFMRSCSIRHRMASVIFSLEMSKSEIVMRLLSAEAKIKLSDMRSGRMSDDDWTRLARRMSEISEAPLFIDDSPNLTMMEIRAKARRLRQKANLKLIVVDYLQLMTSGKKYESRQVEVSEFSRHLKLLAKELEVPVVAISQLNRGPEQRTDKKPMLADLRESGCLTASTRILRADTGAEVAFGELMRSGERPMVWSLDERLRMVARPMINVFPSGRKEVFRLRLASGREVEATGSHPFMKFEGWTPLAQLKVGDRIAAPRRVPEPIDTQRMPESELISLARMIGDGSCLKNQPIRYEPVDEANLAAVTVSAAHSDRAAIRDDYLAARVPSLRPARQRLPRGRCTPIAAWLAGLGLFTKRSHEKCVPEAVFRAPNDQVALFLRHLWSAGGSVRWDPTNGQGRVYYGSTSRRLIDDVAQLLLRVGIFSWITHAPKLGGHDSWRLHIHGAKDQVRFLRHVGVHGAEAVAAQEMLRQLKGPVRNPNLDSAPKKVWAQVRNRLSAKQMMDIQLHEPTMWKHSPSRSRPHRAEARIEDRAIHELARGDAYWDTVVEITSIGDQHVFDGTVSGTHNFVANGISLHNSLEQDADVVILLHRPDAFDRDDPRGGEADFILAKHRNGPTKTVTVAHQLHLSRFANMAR

Coagulation factor XII = target: T4, Coagulation factor XII (Homo sapiens, UniProt P00748); format: functional;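 note: activated factor XIIa alpha cleaving a fluorogenic AMC peptide substrate; inhibitor potency from loss of enzyme activity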
T4 sequence (P00748 whole entry): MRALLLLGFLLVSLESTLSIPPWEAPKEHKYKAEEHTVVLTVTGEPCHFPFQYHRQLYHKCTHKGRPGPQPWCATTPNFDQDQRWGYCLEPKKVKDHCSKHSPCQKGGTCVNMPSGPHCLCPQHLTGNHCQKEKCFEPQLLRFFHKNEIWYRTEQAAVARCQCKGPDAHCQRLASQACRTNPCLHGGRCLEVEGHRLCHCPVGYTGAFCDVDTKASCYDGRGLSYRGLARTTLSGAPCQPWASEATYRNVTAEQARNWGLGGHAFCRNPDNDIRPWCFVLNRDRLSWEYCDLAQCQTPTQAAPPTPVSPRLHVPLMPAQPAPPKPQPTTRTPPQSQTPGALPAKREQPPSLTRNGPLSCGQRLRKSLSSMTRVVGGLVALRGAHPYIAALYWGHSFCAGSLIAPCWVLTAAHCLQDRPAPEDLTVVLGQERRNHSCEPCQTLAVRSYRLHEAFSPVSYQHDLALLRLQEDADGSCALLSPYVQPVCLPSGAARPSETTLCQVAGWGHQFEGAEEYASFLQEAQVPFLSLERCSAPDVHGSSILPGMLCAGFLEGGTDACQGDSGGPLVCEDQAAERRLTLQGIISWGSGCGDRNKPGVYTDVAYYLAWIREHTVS

Protein RecA = target: T5, Protein RecA (Mycobacterium tuberculosis, UniProt P9WHJ3); assay: Fluorescence Cell-Free Homogeneous Dose Retest to Identify Inhibitors of RecA-Intein Splicing Activity. [Related pubchem assays (depositor defined):AID2097, AID2223, AID489010, AID492950]; format: functional
T5 sequence (P9WHJ3 whole entry): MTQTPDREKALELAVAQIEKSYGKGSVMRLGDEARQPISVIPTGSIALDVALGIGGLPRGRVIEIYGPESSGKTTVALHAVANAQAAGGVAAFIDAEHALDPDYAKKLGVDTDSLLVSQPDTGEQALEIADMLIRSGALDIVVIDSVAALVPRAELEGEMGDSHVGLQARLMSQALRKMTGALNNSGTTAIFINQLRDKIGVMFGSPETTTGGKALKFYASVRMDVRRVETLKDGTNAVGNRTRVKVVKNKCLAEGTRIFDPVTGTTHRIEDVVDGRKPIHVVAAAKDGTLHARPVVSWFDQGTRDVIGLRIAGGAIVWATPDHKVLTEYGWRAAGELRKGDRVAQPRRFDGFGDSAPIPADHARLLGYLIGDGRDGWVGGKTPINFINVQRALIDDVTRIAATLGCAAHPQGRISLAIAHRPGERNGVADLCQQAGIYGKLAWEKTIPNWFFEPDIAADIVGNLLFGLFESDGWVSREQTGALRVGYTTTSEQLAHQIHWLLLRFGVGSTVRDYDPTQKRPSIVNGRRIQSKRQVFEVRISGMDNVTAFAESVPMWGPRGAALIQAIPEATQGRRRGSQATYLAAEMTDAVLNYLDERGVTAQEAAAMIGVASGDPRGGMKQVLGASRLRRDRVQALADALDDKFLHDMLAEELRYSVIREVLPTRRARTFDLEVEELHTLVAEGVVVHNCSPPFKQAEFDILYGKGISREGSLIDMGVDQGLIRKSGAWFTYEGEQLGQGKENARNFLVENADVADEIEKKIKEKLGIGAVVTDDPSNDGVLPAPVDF

Escherichia coli = assay: microbe, parasite or virus in culture
[13] = acridine orange displacement from DNA – biochemical, fluorescence polarization, cherry-pick, artefact control for RAD54 inhibitor project, dose response (AID 651673); format: functional
[14] = target: Dual specificity tyrosine-phosphorylation-regulated kinase 1A (Rattus norvegicus, UniProt Q63470); format: biochemical, Homo sapiens
[15] = target: T6, DNA repair and recombination protein RAD54-like (Homo sapiens, UniProt Q92698); assay: RAD54 Holliday junction migration blockers – biochemical, fluorescence, cherry-picked samples, dose series, confirmation (AID 651657); format: functional
T6 sequence (Q92698 whole entry): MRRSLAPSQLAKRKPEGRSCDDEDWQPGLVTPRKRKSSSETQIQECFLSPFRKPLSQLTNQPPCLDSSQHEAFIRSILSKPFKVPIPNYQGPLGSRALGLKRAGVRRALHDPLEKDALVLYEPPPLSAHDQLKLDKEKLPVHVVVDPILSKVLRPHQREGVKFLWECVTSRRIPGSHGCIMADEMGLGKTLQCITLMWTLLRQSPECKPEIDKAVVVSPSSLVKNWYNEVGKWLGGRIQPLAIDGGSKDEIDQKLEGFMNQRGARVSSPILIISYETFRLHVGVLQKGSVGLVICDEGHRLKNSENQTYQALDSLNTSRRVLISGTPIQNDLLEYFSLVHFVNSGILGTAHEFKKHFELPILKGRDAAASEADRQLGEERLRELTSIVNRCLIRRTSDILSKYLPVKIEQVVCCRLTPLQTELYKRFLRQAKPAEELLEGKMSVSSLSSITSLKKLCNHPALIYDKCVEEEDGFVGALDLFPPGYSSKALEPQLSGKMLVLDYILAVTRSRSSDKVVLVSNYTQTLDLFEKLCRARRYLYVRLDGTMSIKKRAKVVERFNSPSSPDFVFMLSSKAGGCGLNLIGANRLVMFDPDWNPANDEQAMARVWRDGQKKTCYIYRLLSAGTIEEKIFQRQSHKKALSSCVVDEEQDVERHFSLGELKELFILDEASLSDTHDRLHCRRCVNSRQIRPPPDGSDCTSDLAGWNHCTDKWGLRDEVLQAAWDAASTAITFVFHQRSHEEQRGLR

CAAX prenyl protease 1 = CAAX prenyl protease 1 (Saccharomyces cerevisiae S288c, UniProt P47154); assay: yeast CAAX protease Ste24 inhibition – biochemical, S. cerevisiae, plate reader, cherry-pick, dose response (AID 488815)
[16] = Luminescence Cell-Based Dose Confirmation HTS to Identify Inhibitors of Platelet Dense Granule Release. [Related pubchem assays: 1663 (Primary HTS), 1678 (Summary of Project)]; format: functional
CAAX prenyl protease 2 = CAAX prenyl protease 2 (Homo sapiens, UniProt Q9Y256); assay: inhibition of Ras-converting CAAX protease Rce1 – biochemical, yeast membranes, quenched-peptide fluorescence, cherry-pick, dose response (AID 588849)
[17] = target: T2, Luciferin 4-monooxygenase; assay: inhibition of purified Photinus pyralis luciferase – biochemical, luminescence, dose response (AID 1891)
Trypsin = Trypsin (Sus scrofa, UniProt P00761); assay: trypsin protease activity blockade – biochemical, quenched peptide fluorescence, cherry-pick, selectivity assay for Rce1 protease inhibitor project, dose response (AID 488789)
[18] = target: Dual specificity protein phosphatase 3 (Homo sapiens, UniProt P51452); assay: SAR VHR1 Fluorescent Assay for In Vitro dose response studies Set 3. [Related pubchem assays (depositor defined):AID1654, AID1661, AID1878]; format: functional
Chain of Dual specificity protein phosphatase 3 (P51452 whole entry): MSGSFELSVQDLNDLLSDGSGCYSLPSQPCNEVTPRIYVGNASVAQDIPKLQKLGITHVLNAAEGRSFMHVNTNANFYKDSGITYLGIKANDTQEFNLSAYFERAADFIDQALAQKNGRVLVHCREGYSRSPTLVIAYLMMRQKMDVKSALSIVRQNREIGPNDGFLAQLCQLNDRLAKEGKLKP

T2 sequence (P08659 whole entry): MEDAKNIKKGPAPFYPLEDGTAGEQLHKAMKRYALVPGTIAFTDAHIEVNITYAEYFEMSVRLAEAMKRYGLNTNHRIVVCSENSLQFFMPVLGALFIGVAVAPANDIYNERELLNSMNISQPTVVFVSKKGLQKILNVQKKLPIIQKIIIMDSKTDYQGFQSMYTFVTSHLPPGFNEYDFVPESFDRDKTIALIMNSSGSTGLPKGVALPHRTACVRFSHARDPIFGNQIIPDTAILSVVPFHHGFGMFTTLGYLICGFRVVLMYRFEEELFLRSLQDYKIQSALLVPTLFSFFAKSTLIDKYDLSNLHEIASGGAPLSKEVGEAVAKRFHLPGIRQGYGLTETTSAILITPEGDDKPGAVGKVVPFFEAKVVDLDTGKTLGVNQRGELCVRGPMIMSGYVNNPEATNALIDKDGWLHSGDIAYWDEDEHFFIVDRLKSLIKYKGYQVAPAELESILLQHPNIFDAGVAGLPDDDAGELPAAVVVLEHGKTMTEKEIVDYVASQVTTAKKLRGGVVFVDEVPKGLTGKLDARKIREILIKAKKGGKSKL
Chain of CAAX prenyl protease 1 (P47154 whole entry): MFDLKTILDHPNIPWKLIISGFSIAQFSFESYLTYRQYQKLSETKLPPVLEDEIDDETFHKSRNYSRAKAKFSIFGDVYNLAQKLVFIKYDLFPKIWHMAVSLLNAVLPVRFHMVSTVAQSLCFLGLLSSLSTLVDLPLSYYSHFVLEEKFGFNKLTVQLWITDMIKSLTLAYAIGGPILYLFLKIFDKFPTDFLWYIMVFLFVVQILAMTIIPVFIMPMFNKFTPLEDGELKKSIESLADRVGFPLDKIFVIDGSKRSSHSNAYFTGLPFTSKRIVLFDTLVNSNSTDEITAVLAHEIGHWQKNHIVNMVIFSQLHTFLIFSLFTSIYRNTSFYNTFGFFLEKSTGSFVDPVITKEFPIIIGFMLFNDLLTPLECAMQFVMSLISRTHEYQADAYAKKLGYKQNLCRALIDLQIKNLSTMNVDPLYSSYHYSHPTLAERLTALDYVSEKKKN
Chain of Nonstructural protein 1 (Q194T2 whole entry): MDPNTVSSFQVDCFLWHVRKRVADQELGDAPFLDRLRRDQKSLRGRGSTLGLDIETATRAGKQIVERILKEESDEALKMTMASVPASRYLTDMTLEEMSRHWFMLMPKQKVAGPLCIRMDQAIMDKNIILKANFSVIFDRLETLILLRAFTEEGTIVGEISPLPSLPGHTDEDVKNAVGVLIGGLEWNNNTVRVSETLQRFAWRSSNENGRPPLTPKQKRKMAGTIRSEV
Chain of CAAX prenyl protease 2 (Q9Y256 whole entry): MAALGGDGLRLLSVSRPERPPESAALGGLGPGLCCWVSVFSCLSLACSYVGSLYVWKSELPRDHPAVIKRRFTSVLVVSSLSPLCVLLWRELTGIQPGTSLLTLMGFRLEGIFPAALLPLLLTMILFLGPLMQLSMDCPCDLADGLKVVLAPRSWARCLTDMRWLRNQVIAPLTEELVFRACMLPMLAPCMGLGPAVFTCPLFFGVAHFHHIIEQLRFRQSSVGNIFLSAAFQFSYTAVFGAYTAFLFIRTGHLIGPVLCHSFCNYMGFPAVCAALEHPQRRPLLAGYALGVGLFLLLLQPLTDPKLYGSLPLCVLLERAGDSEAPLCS
Chain of Trypsin (P00761 whole entry): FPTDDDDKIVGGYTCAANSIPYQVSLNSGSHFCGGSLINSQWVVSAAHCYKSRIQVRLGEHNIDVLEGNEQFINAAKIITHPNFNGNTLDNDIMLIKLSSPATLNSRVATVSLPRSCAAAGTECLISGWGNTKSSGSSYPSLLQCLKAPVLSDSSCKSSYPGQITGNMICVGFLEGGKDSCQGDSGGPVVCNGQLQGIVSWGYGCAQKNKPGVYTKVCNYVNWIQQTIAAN

Oc1c(CN2CCCCC2)cc(COCc2ccccc2)c2cccnc12
AC50 (A-375 [1]): 13.5 µM (active) | AC50 [2]: 2.17 µM (active) | EC50 [3]: > 100 µM (not active) | AC50 [4]: 7.15 µM (active) | IC50 (Nonstructural protein 1): 1.86 µM (active) | EC50 [5]: 6.52 µM (active) | EC50 [6]: 4.04 µM (active) | EC50 (cells [7]): 7.62 µM (active) | AC50 [8]: 537 nM (active) | AC50 [9]: 10.8 µM (active) | EC50 (cells [10]): > 350 µM (not active) | EC50 (HT-1080): 27.9 µM (active)

O=c1c(Cl)c(Cl)cnn1Cc1ccc(F)cc1
AC50 [2]: 8.9 µM (active) | AC50 (A-375 [11]): 30.8 µM (active) | AC50 [12]: 39.5 µM (active) | IC50 (Coagulation factor XII): > 50 µM (inactive) | EC50 (Protein RecA): 11.3 µM (active)

COc1ccccc1C(C[N+](=O)[O-])c1c[nH]c2ccccc12 (centres undefined)
AC50 (Escherichia coli): 90.9 µM (active)

COc1ccc2cc3cc(C(=O)NCCCN4CCOCC4)oc3nc2c1
AC50 [13]: 55.3 µM (active) | AC50 [14]: 5.51 µM (active) | EC50 [5]: > 60 µM (not active) | EC50 [6]: 2.2 µM (active) | AC50 [15]: 36.7 µM (active)

CCn1c(-c2cccs2)nc2ccccc21
AC50 (CAAX prenyl protease 1): 2.54 µM (active) | EC50 [16]: > 112 µM (not active) | AC50 (CAAX prenyl protease 2): 11.6 µM (active) | EC50 [17]: > 112 µM (not active) | AC50 (Trypsin): 6.83 µM (active)

CSc1ccc2nc(Nc3nnc(-c4ccc5c(c4)OCCO5)o3)sc2c1
IC50 [18]: 682 nM (active)
